Literature values, collected in patent US20060281913A1, “Process for the production of crystalline xylose from sugar cane bagasse, crystalline xylose obtained by said process, process for the production of xylitol from the said xylose and crystalline xylitol obtained thereby” (priority 2003, published 2006).
Where two headings read alike, the source gives them in different places.

Assays:
[1] = relative to sucrose

Row | solubility in methanol, ethanol and isopropanol | solubility in water | SMILES | sweetening power ([1]; in words) | sweetening power ([1]; data collected from the literature)
1 | low solubility | high solubility | OC[C@@H](O)[C@H](O)[C@@H](O)CO [crystalline xylitol, xylitol] | equivalent to that of sucrose | 
2 | sparingly soluble | highly soluble | O=C[C@H](O)[C@@H](O)[C@H](O)CO [crystalline xylose, xylose] |  | ~67 % that of sucrose
